Data on 14 compounds can be found in PubChem BioAssay (NCI).

Molecules are shown by their SMILES.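 In this assay, cells in 96-well plates receive the compound at five concentrations for 48 hours. Endpoints are linearly interpolated between the surrounding concentrations. At the TGI there is no net growth.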

Test in all cases: inhibition of tumour cell growth, NCI panel, 48 h
The test system of test [1] is A498 renal.
Test [2] has as its system CCRF-CEM leukemia.
In test [3] the test system is COLO 205 colon.
Test [4] relates to DU-145 prostate.
For test [5], the system named is HCC-2998 colon.
Test [6] relates to HCT-15 colon.
The test system of test [7] is HT29 colon.
Test [8] deals with IGROV1 ovarian.
The test system of test [9] is KM12 colon.
For test [10], the system named is LOX IMVI melanoma.
Test [11] has as its system M14 melanoma.
Test [12] has as its system MOLT-4 leukemia.
The test system of test [13] is NCI-H23 lung.
Test [14] concerns NCI-H460 lung.
Test [15] concerns NCI-H522 lung.
In test [16] the test system is OVCAR-3 ovarian.
Test [17] relates to SK-MEL-28 melanoma.
In test [18] the test system is SNB-19 CNS.
For test [19], the system named is T-47D breast.
Test [20] deals with U251 CNS.

For the compound `CC1=NN(c2nc(N)nc(C(C)Sc3cc(Cl)c(C)cc3S(N)(=O)=O)n2)C(C)(C)C1` (stereo not drawn), the TGI in test [1], in [2], in test [3], in [4], in test [5] and in [6] was more than 10 µM throughout. For the same compound, the TGI in [7], in [8], in test [9], in test [10], in test [11] and in test [12] was more than 10 µM in each case. Also, the TGI in test [13], in [14], in test [15], in [16], in [17] and in test [18] was more than 10 µM in each case. Besides, the TGI in test [19] and in [20] was more than 10 µM throughout.
Regarding `CC(Oc1ccccc1)C(=O)NN` (stereo not drawn), the TGI in test [1], in test [2], in [3], in test [4], in [5] and in test [6] was more than 100 µM in each case. The TGI in test [7], in test [8], in [9], in test [10], in test [11] and in test [12] was more than 100 µM in each case. Also, the TGI in [13], in test [14], in test [15], in test [16], in [17] and in [18] was more than 100 µM in each case. The TGI in test [19] and in test [20] was more than 100 µM in each case.
As to `CN(C)C1(C(=O)O)CC1`, the TGI in test [1], in test [2], in [4], in test [5], in [6] and in test [7] was more than 100 µM throughout. Besides, the TGI in [8], in test [10], in test [11], in [12], in test [13] and in test [14] was more than 100 µM throughout. The TGI in test [15], in [16], in test [17], in [18], in test [19] and in test [20] was more than 100 µM throughout.
Consider `COc1ccc(N2C(=O)CSC2c2cc3cc(Br)ccc3nc2Cl)cc1` (stereo not drawn), for which the TGI in [1], in test [2], in test [3], in test [4], in [5] and in [6] was more than 50 µM each time. In addition, the TGI in test [7], in test [8], in test [9], in [10], in [11] and in test [12] was more than 50 µM in each case. Moreover, the TGI in test [13], in test [14], in [15], in [16], in [17] and in test [18] was more than 50 µM in each case. This compound registered a TGI in test [19] of more than 50 µM.
In the case of `CCCCCCc1cc2cc(C(=O)Nc3ccccc3F)c(=N)oc2cc1O`, the TGI in [1] was found to be 37.2 µM; in test [2], 21.7 µM; in [3], 39.3 µM; in test [4], 25.2 µM; in test [5], 48.1 µM; in test [6], 22.3 µM. In addition, the TGI in test [7] turned out to be 62.9 µM; in [8], 13.7 µM; in test [9], 19.7 µM; in test [10], 19.4 µM; in test [11], 28.7 µM; in test [12] it was 90.5 µM. Moreover, the TGI in [13] was found to be 8.03 µM; in test [14] it was 97.8 µM; in test [15] it was 16.8 µM; in test [16] it was 25.9 µM; in [17] it was 56.8 µM; in test [18], 56.2 µM. The TGI in [19] was 12.4 µM; in [20] it was 17.9 µM.
For `Brc1ccccc1/C=C\C1(c2ccccc2)OCCO1`, the TGI is 25.9 µM in [1]; more than 33.2 µM in [2]; 37.7 µM in test [3]; 26.7 µM in [4]; 32.2 µM in test [5]; 19.5 µM in test [6]. For the same compound, the TGI in [7] amounted to 19 µM; in test [8] it was 29.3 µM; in test [9] it was 7.17 µM; in test [10], 11.6 µM; in test [11], 25.6 µM; in test [12], 9.23 µM. Also, the TGI in test [13] stood at 20.5 µM; in test [14], 34.2 µM; in [15], 22.6 µM; in [16] it was 25.5 µM; in test [17], 46.9 µM; in [18], 28.9 µM. Moreover, the TGI turned out to be 31.4 µM in test [19] and 18.4 µM in test [20].
Take `O=C(O)CN1CCNCCN(CC(=O)O)CCNCC1`: the TGI in [1] was more than 100 µM; in test [2] it was more than 100 µM; in [3], more than 36.4 µM; in test [4], more than 100 µM; in [5], more than 100 µM; in [6], more than 74.7 µM. In addition, the TGI in test [7], in test [8], in test [9], in test [10], in [11] and in [12] was more than 100 µM each time. For the same compound, the TGI is more than 100 µM in test [13]; more than 50.5 µM in [14]; more than 100 µM in test [15]; more than 100 µM in test [16]; more than 100 µM in test [18]; more than 100 µM in test [19]. This compound also registered a TGI in test [20] of more than 100 µM.
Turning to `COc1cc(CNc2nc3ccccc3nc2-c2cccs2)cc(OC)c1OC`, the TGI in test [1] is more than 100 µM; in test [2], 52.2 µM; in test [3] it was more than 100 µM; in test [4], more than 100 µM; in test [5], more than 100 µM; in test [6] it was more than 100 µM. For the same compound, the TGI is more than 100 µM in [7]; more than 100 µM in test [8]; more than 100 µM in test [9]; 42.6 µM in [10]; 29.6 µM in test [12]; 65.5 µM in test [13]. The TGI is 37.5 µM in [14]; 38.7 µM in test [15]; more than 100 µM in test [16]; more than 100 µM in [17]; more than 100 µM in test [19]; more than 100 µM in test [20].
`CN(C)C(=S)N/N=C\C(=N/NC(=S)N(C)C)c1ccccc1`: the TGI in test [1] was 49.1 µM; in test [3] it was more than 100 µM; in [4], more than 22.7 µM; in test [5], more than 100 µM; in test [6] it was more than 100 µM; in [7] it was more than 100 µM. Further, the TGI in test [8] was more than 48.2 µM; in [9], more than 100 µM; in test [10], more than 100 µM; in test [11], more than 100 µM; in test [12], more than 100 µM; in test [13], more than 45.4 µM. Also, the TGI in test [14] is more than 100 µM; in test [15], 9.86 µM; in test [16] it was more than 23.4 µM; in test [17], more than 100 µM; in test [18], more than 100 µM; in test [19], 4.77 µM. The compound also yielded a TGI in test [20] of more than 100 µM.
On to `COc1ccc(-n2nnc3c(C#N)c(-c4ccccc4)c(C)n3c2=O)cc1`, for which the TGI is more than 100 µM in test [1]; 58.5 µM in test [2]; more than 100 µM in [3]; more than 100 µM in test [4]; more than 100 µM in [5]; more than 100 µM in test [6]. The TGI in test [7], in [8], in [9], in test [10], in test [11] and in [13] was more than 100 µM throughout. The TGI in test [14], in test [15], in [16], in test [17], in [18] and in test [19] was more than 100 µM each time. The same compound registered a TGI in test [20] of more than 100 µM.
On to `CCCCOP(=O)(OCCCC)/C(C#N)=C/c1ccc(C)o1`, for which the TGI in test [1], in test [3], in test [4], in [5], in [6] and in test [7] was more than 100 µM each time. Besides, the TGI is more than 100 µM in test [8]; more than 100 µM in [9]; more than 100 µM in test [10]; 78.5 µM in [11]; more than 100 µM in [12]; 92.3 µM in [13]. The TGI in [14] was more than 100 µM; in [15], more than 100 µM; in test [16], 57.6 µM; in [17], more than 100 µM; in test [18], more than 100 µM; in [19] it was more than 100 µM. In [20], this compound had a TGI of more than 100 µM.
As for `CCOC(=O)N1CC2(C(=O)OC)C=CC1C(C(=O)OC)C2` (stereo not drawn), the TGI in [1], in [2], in test [3], in [4], in test [5] and in test [6] was more than 100 µM each time. The TGI in [8], in test [9], in [10], in [11], in [12] and in test [13] was more than 100 µM throughout. Further, the TGI in test [14], in test [15], in test [16], in [17], in test [18] and in test [19] was more than 100 µM throughout. Further, in [20], the TGI is more than 100 µM.
For the compound `COC(=O)c1ccccc1/C=C1\Cc2cc3c(cc2C1=O)CCC3`, the TGI in test [1], in test [3], in test [4], in test [5], in test [6] and in test [7] was more than 100 µM throughout. Moreover, the TGI in test [8], in [9], in test [10], in test [11], in test [12] and in test [13] was more than 100 µM each time. Besides, the TGI in test [14], in test [15], in test [16], in test [17], in [18] and in test [19] was more than 100 µM throughout. The same compound had a TGI in test [20] of more than 100 µM.
With `Cc1[nH]c2ncn3ncnc3c2c1Cc1ccccc1`, the TGI in [1], in [2], in test [3], in [4], in test [5] and in test [6] was more than 100 µM each time. In addition, the TGI in test [7], in test [8], in test [9], in [11], in [12] and in [13] was more than 100 µM each time. The TGI in test [14], in [15], in [16], in test [17], in [18] and in test [19] was more than 100 µM each time. Moreover, the TGI in [20] is more than 100 µM.
